Results published in patent US8450070B2, “Method for screening of cell-protecting agent” (Takeda Pharmaceutical Company Limited, priority 2007, dated 2013).

What was measured:
Hsp70 = Hsp70 expression-inducing activity in the presence of IL-1β stimulation (western blotting); assay type: cell-based; details: human normal articular chondrocytes, 10 ng/ml IL-1β, 2 days; FIG. 3
Description: In an embodiment of the step (2), the heat shock protein expression-inducing activity of a test compound was measured using a cell capable of expressing a heat shock protein. Hsp70 was used as the heat shock protein.
Human normal articular chondrocytes (manufactured by Clonetics Corporation) were grown by monolayer culture in a growth medium for articular chondrocytes (CGM, manufactured by Clonetics Corporation) and then suspended to 2.2×10^4 cells/ml in a 1:1 mixture of Dulbecco's modified Eagle's medium/Ham F12 medium. The cell culture was inoculated into a 12-well plate (manufactured by Asahi Techno Glass Corporation) by 3 ml per each well, followed by incubation at 37° C. for a day under 5% CO2. […]
After completion of the electrophoresis, the proteins in the gel were adsorbed onto a nitrocellulose membrane (Hybond-ECL; manufactured by Amersham Pharmacia Biotech Inc.) using HorizBlot (manufactured by Atto Co.). Each protein level was measured by western blotting using anti-Hsp70 antibody (manufactured by Transduction Laboratories) or anti-β-actin antibody (manufactured by Sigma, Inc.) as a primary antibody and horseradish peroxidase-labeled anti-mouse IgG antibody (manufactured by Kirkegaard & Perry Laboratories) as a secondary antibody. β-Actin was used to verify adsorption of the proteins onto the nitrocellulose membrane.

[1] = tested on: human normal articular chondrocytes; test: Cell protecting activity against NOR3-induced apoptosis (MTT); assay type: cell-based; details: 10 ng/ml IL-1β, 110 μM NOR3, human normal articular chondrocytes; FIG. 6
Description: First, human normal articular chondrocytes were suspended to 4×10^4 cells/ml in a growth medium for articular chondrocytes. The cell culture was inoculated into a 96-well plate, followed by incubation at 37° C. for a day under 5% CO2. The medium was exchanged to a 1:1 mixture of Dulbecco's modified Eagle's medium/Ham F12 medium. The test compound and 10 ng/ml of […] were added to the medium, followed by further incubation at 37° C. for a day under 5% CO2. Next, 110 μM nitrogen monoxide-releasing reagent, i.e., (±)-(E)-4-ethyl-2-[(E)-hydroximino]-5-nitro-3-hexenamide (NOR3; manufactured by Dojindo) was added and the mixture was incubated for a day to induce apoptosis of the cells. After completion of the incubation, a viability of the cells was determined using 3-(4,5-dimethylthiazol-2-yl)-2,5-diphenyltetrazorium bromide (MTT; manufactured by Dojindo). […] Compound A was verified to have an excellent cell protecting activity.

[2] = tested on: human normal articular chondrocytes; test: Cytotoxicity (cell viability, WST-8); assay type: cell-based; details: for cell viability (WST-8): 2 days, FIG. 7
Description: First, human normal articular chondrocytes were suspended to 5×10^4 cells/ml in a growth medium for articular chondrocytes. The cell culture was inoculated into a 96-well plate, followed by incubation at 37° C. for a day under 5% CO2. The test compound was added to the medium, followed by incubation at 37° C. for further 2 days under 5% CO2.

His-hHsp90α = target: T1, His-hHsp90α (Homo sapiens, UniProt P07900); test: Inhibition of binding of His-hHsp90α to immobilized Compound B (SDS-PAGE, silver stain); details: various concentrations of test compound; FIG. 1
T1 construct: the Hsp90α coding region was amplified from a human skeletal complementary DNA (cDNA) library; His tag (N); made in house; host or cells: Escherichia coli BL21 (DE3), plasmid pET28b-hHsp90α
Description: In an embodiment of the step (1) in the screening method of the invention, the steps of measuring and comparing (i) the binding level of an immobilized imidazothiazine derivative to Hsp90 in the absence of a test compound and (ii) the binding level of an immobilized imidazothiazine derivative to Hsp90 in the presence of a test compound, were performed as follows.
Purified human Hsp90α protein (His-hHsp90α) tagged with histidine at the N terminus through using Escherichia coli was employed as Hsp90.
First, 10 μg of His-hHsp90α was reacted with a test compound of various concentrations in 0.2 ml of a binding buffer (10 mM Tris-HCl, pH 7.5, 20% glycerol, 1 mM EDTA, 500 mM NaCl and 1 mM DTT) containing 0.5% DMF for 30 minutes.

His2-hHsp90α protein = target: T2, His2-hHsp90α protein (Homo sapiens, UniProt P07900); test: Inhibition of binding of [3H]-Compound A to immobilized His2-hHsp90α (SPA beads); details: 40 nM [3H]-Compound A, various concentrations of test compound; FIG. 2
T2 construct: the hHsp90α gene was excised from pET28b-hHsp90α using the BamHI cleavage site and the Bpu1102I cleavage site; made in house; host or cells: Escherichia coli BL21 (DE3), plasmid pET15b-hHsp90α
Description: In another embodiment of the step (1) of the screening method according to the present invention, measuring and comparing (i) the binding level of immobilized Hsp90 to a labeled imidazothiazine derivative in the absence of a test compound and (ii) the binding level of immobilized Hsp90 to a labeled imidazothiazine derivative in the presence of a test compound were performed.
Purified human Hsp90α protein (His2-hHsp90a) tagged with histidine at the N terminus through using Escherichia coli was employed as Hsp90.
The mixture was reacted overnight at 4° C. in a 96-well LumiNunc plate (manufactured by Nunc, Inc.). The above procedure gave immobilized Hsp90 in which the His2-hHsp90α protein was bound to Ysi (2-5 μm) copper his-tag SPA beads via histidine tag.

Hsp90/HSF-1 complex = target: T3, Hsp90/HSF-1 complex (Homo sapiens, UniProt P07900); test: Hsp90/HSF-1 complex disrupting activity (immunoprecipitation from chondrocyte lysate, western blotting); assay type: biochemical; details: 1 μM compound, 30 minutes, FIG. 4, lane 3
T3 construct: host or cells: human normal articular chondrocytes (lysate)
Description: In another embodiment of the step (2), the activity of a test compound to disrupt the Hsp90/HSF-1 complex was measured. The substance having the activity to disrupt Hsp90/HSF-1 complex is expected to show the heat shock protein expression-inducing activity.
Human normal articular chondrocytes (manufactured by Clonetics) were washed with PBS and dissolved in RIPA buffer solution (50 mM Tris-HCl, pH 8.0, 150 mM NaCl, 1% NP-40, 0.1% SDS and 0.5% deoxycholic acid) containing a proteinase inhibitor (Complete; Boehringer Mannheim). After the solution was centrifuged at 16,000×g for 10 minutes, the supernatant was used as the lysate containing the Hsp90/HSF-1 complex. […]
After completion of the electrophoresis, the proteins in the gel were adsorbed onto a nitrocellulose membrane (Hybond-ECL; manufactured by Amersham Pharmacia Biotech Inc.) using HorizBlot (manufactured by Atto Co.). Each protein level was measured by western blotting using anti-HSF-1 antibody (manufactured by StressGen) or anti-Hsp90 antibody (manufactured by Transduction Laboratories) as a primary antibody and horseradish peroxidase-labeled anti-rabbit IgG antibody (manufactured by Cell Signaling Technology) or horseradish peroxidase-labeled anti-mouse IgG antibody (manufactured by Kirkegasrd & Perry Laboratories) as a secondary antibody.

[3] = tested on: Hsp90 client protein such as glucocorticoid receptor, Akt, cyclin dependent kinase 4; test: Hsp90 client protein degradation-inducing activity (western blotting); assay type: cell-based, human
Description: Human normal articular chondrocytes were suspended to 0.5×10^5 cells/ml in a growth medium for articular chondrocytes. The cell culture was inoculated into a 6-well plate (manufactured by Falcon Co., Ltd.) by 2 ml per each well, followed by incubation at 37° C. for a day under 5% CO2. The medium was exchanged to a 1:1 mixture of Dulbecco's modified Eagle's medium/Ham F12 medium, followed by further incubation at 37° C. for a day under 5% CO2.
The test compound was added to the culture medium and the cells were further incubated for about 18 hours at 37° C. under 5% CO2. After completion of the incubation, the cells were washed once with phosphate-buffered saline (PBS) and 200 μl of a cell lysate buffer (10 mM Tris(hydroxymethyl)aminomethane, pH 7.4, 150 mM NaCl, 1 mM EDTA.2Na, 1 mM EGTA, 0.5 mM (p-aminophenyl)methanesulfonyl fluoride hydrochloride, 200 μM sodium β-glycerophosphate n-hydrate, 20 mM NaF, 2 mM sodium diphosphate decahydrate, 10 μg/ml aprotinin, 10 μg/ml leupeptin, 1% Triton X-100, 0.5% Nonidet P40, 0.1% SDS and 1 mM o-vanadate) was added thereto. After the cell debris was scraped from the plate using a cell scraper, the cell lysate buffer was recovered. The recovered cell lysate buffer was mixed with the equal volume of a sample buffer (Tris-SDS-ME Sample Buffer; manufactured by Daiichi Pure Chemicals). […]

Row | Structure (SMILES) | Hsp70 protein level (Hsp70) | apoptosis / cell viability after NOR3 (MTT) [1] | cell viability (WST-8) ([2]; at concentrations of 30 nM or higher) | binding level of the His-hHsp90α protein to the immobilized Compound B (His-hHsp90α) | binding level of the His2-hHsp90α protein to [3H]-compound A (His2-hHsp90α protein) | co-precipitation of HSF-1 with Hsp90 (anti-Hsp90 antibody immunoprecipitation) (Hsp90/HSF-1 complex) | intracellular protein level of Hsp90 client protein (glucocorticoid receptor, Akt, cyclin dependent kinase 4) ([3]; human normal articular chondrocytes, about 18 hours, at concentrations of 10 μM or less, FIG. 5) | client protein degradation-inducing activity as compared to GA ([3]; ratio relative to GA) | cell viability (WST-8) ([2]; at concentrations of 10 μM or less) | cytotoxicity relative to that of GA ([2]; ratio relative to GA)
1 | COC1=C2C[C@@H](C)C[C@H](OC)[C@H](O)[C@@H](C)/C=C(\C)[C@H](OC(N)=O)[C@@H](OC)/C=C\C=C(/C)C(=O)NC(=CC1=O)C2=O (relative stereo) [GA, [18S-(4E,5Z,8R*,9R*,10E,12R*,13S*,14R*,16S*)]-9-[(aminocarbonyl)oxy]-13-hydroxy-8,14,19-trimethoxy-4,10,12,16-tetramethyl-2-azabicyclo[16.3.1.]docosa-4,6,10,18,21-pentan-3,20,22-trion, reference compound] | clearly increased | decreased the cell viability | greatly decreased |  |  |  |  |  |  | 
2 | Cc1ccc(S(=O)(=O)/N=c2\[nH]c(=O)n3c(C)c(C)sc(SCCCC(F)(F)C(F)(F)F)c2-3)cc1 [Compound A, N-[(1Z)-5,6-dimethyl-3-oxo-8-[(4,4,5,5,5-pentafluoropentyl)sulfanyl]-2,3-dihydro-1H-imidazo[5,1-c][1,4]thiazin-1-ylidene]-4-methylbenzenesulfonamide] | clearly increased | dose-dependently suppressed the apoptosis |  | dose-dependently decreased | dose-dependently decreased | not observed | did not affect | less than 1/1000 | did not affect | 1/300
